“And” between values parts separate entries of the source, which are not always exact repeats. Identical values can stand only once.
Tested on: BDF1 mice, Adenocarcinoma 755 s.c., tumor weight T/C
Assay: NCI In Vivo Anticancer Drug Screen. Data for tumor model Adenocarcinoma 755 (subcutaneous) in B6D2F1 (BDF1) mice
Conditions: endpoint: mean tumor weight, higher = larger tumour
Summary of the method: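 Compound activity was tested in mice carrying transplanted tumors. Survival or tumor size was measured, and each value is the treated-group measurement divided by that of the vehicle-treated control group (T/C).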

[1] = dose: 30.0 mg/kg/injection, schedule: Q01DX011 (ip), vehicle: carboxymethylcellulose (CMC)
[2] = dose: 15.0 mg/kg/injection, schedule: Q01DX011 (ip), vehicle: methylcellulose (MC)
[3] = dose: 31.0 mg/kg/injection, schedule: Q01DX011 (ip), vehicle: methylcellulose (MC)
[4] = dose: 62.0 mg/kg/injection, schedule: Q01DX011 (ip), vehicle: methylcellulose (MC)
[5] = dose: 125.0 mg/kg/injection, schedule: Q01DX011 (ip), vehicle: methylcellulose (MC)
[6] = dose: 250.0 mg/kg/injection, schedule: Q01DX011 (ip), vehicle: methylcellulose (MC)
[7] = dose: 12.5 mg/kg/injection, schedule: Q01DX011 (ip), vehicle: methylcellulose (MC)
[8] = dose: 25.0 mg/kg/injection, schedule: Q01DX011 (ip), vehicle: methylcellulose (MC)

Cn1cnc([N+](=O)[O-])c1Sc1ncnc2nc[nH]c12
T/C (dose: 0.03 mg/kg/injection, schedule: Q01DX011 (oral), vehicle: other): 79 % of control | T/C (dose: 0.06 mg/kg/injection, schedule: Q01DX011 (oral), vehicle: other): 63 % of control | T/C (dose: 0.12 mg/kg/injection, schedule: Q01DX011 (oral), vehicle: other): 48 % of control | T/C (dose: 0.25 mg/kg/injection, schedule: Q01DX006 (iv), vehicle: other): 64 % of control | T/C (dose: 0.25 mg/kg/injection, schedule: Q01DX011 (oral), vehicle: other): 36 % of control | T/C (dose: 0.5 mg/kg/injection, schedule: Q01DX006 (iv), vehicle: other): 58 % of control | T/C (dose: 0.5 mg/kg/injection, schedule: Q01DX011 (oral), vehicle: other): 40 % of control | T/C (dose: 1.0 mg/kg/injection, schedule: Q01DX006 (iv), vehicle: other): 16 % of control | T/C (dose: 1.0 mg/kg/injection, schedule: Q01DX011 (oral), vehicle: other): 5 % of control and 10 % of control | T/C (dose: 2.0 mg/kg/injection, schedule: Q01DX006 (iv), vehicle: other): 9 % of control | T/C (dose: 2.0 mg/kg/injection, schedule: Q01DX011 (ip), vehicle: other): 3 % of control | T/C (dose: 2.5 mg/kg/injection, schedule: Q01DX011 (ip), vehicle: methylcellulose (MC)): 15 % of control and 36 % of control | T/C (dose: 2.5 mg/kg/injection, schedule: Q01DX011 (oral), vehicle: other): 2 % of control | T/C (dose: 3.1 mg/kg/injection, schedule: Q01DX001 (ip), vehicle: other): 56 % of control | T/C (dose: 4.0 mg/kg/injection, schedule: Q01DX006 (iv), vehicle: other): 3 % of control | T/C (dose: 4.0 mg/kg/injection, schedule: Q01DX011 (im), vehicle: other): 3 % of control | T/C (dose: 4.0 mg/kg/injection, schedule: Q01DX011 (iv), vehicle: other): 17 % of control | T/C (dose: 4.0 mg/kg/injection, schedule: Q01DX011 (sc), vehicle: other): 1 % of control | T/C (dose: 4.0 mg/kg/injection, schedule: Q#A X022 (ip), vehicle: other): 2 % of control | T/C (dose: 5.0 mg/kg/injection, schedule: Q01DX011 (ip), vehicle: methylcellulose (MC)): 4 % of control and 7 % of control | T/C (dose: 6.3 mg/kg/injection, schedule: Q01DX001 (ip), vehicle: other): 52 % of control | T/C (dose: 8.0 mg/kg/injection, schedule: Q01DX011 (im), vehicle: other): 1 % of control | T/C (dose: 8.0 mg/kg/injection, schedule: Q01DX011 (iv), vehicle: other): 2 % of control | T/C (dose: 9.5 mg/kg/injection, schedule: Q01DX011 (ip), vehicle: methylcellulose (MC)): 2 % of control and 8 % of control | T/C (dose: 10.0 mg/kg/injection, schedule: Q01DX011 (ip), vehicle: methylcellulose (MC)): 4 % of control and 7 % of control | T/C (dose: 12.0 mg/kg/injection, schedule: Q03DX004 (ip), vehicle: other): 2 % of control | T/C (dose: 12.5 mg/kg/injection, schedule: Q01DX001 (ip), vehicle: other): 28 % of control | T/C (dose: 16.0 mg/kg/injection, schedule: Q01DX011 (iv), vehicle: other): 1 % of control | T/C (dose: 19.0 mg/kg/injection, schedule: Q01DX011 (ip), vehicle: methylcellulose (MC)): 2 % of control | T/C (dose: 20.0 mg/kg/injection, schedule: Q01DX011 (oral), vehicle: other): 7 % of control | T/C (dose: 25.0 mg/kg/injection, schedule: Q01DX001 (ip), vehicle: other): 1 % of control and 2 % of control and 20 % of control | T/C (dose: 28.0 mg/kg/injection, schedule: Q07DX002 (ip), vehicle: other): 17 % of control | T/C (dose: 38.0 mg/kg/injection, schedule: Q01DX011 (ip), vehicle: methylcellulose (MC)): 2 % of control | T/C (dose: 40.0 mg/kg/injection, schedule: Q01DX011 (oral), vehicle: other): 9 % of control | T/C (dose: 50.0 mg/kg/injection, schedule: Q01DX001 (ip), vehicle: other): 41 % of control | T/C (dose: 56.0 mg/kg/injection, schedule: Q07DX002 (ip), vehicle: other): 3 % of control | T/C (dose: 96.0 mg/kg/injection, schedule: Q03DX004 (ip), vehicle: other): 1 % of control | T/C (dose: 100.0 mg/kg/injection, schedule: Q01DX001 (ip), vehicle: other): 1 % of control | T/C (dose: 112.0 mg/kg/injection, schedule: Q07DX002 (ip), vehicle: other): 8 % of control | T/C (dose: 200.0 mg/kg/injection, schedule: Q01DX001 (ip), vehicle: other): 45 % of control

Nc1[nH]c(=O)[nH]c(=O)c1C(=O)CCl
T/C [1]: 77 % of control

CC(=O)Nc1cc2c(cc1Br)-c1ccccc1C2O (configuration not stated)
T/C (dose: 35.0 mg/kg/injection, schedule: Q01DX011 (ip), vehicle: saline): 43 % of control | T/C (dose: 75.0 mg/kg/injection, schedule: Q01DX011 (ip), vehicle: saline): 52 % of control | T/C (dose: 155.0 mg/kg/injection, schedule: Q01DX011 (ip), vehicle: saline): 38 % of control | T/C (dose: 210.0 mg/kg/injection, schedule: Q01DX011 (ip), vehicle: saline): 23 % of control

O=C(/C=C/C(=O)c1ccccc1)c1ccccc1
T/C (dose: 65.0 mg/kg/injection, schedule: Q01DX011 (ip), vehicle: other): 76 % of control | T/C (dose: 90.0 mg/kg/injection, schedule: Q01DX011 (ip), vehicle: other): 59 % of control | T/C (dose: 125.0 mg/kg/injection, schedule: Q01DX011 (ip), vehicle: other): 51 % of control

Nc1nc(Cl)cc(-c2ccccc2)n1
T/C [2]: 86 % of control | T/C [3]: 122 % of control | T/C [4]: 94 % of control | T/C [5]: 65 % of control | T/C [6]: 107 % of control

C=CCOP(=O)(N1CC1CC)N1CC1CC (configuration not stated)
T/C (dose: 17.0 mg/kg/injection, schedule: Q01DX011 (ip), vehicle: saline): 69 % of control | T/C (dose: 33.0 mg/kg/injection, schedule: Q01DX011 (ip), vehicle: saline): 50 % of control | T/C (dose: 66.0 mg/kg/injection, schedule: Q01DX011 (ip), vehicle: saline): 18 % of control

C/C(=N\NC(=O)c1ccncc1)c1cccc(Br)c1
T/C (dose: 0.9 mg/kg/injection, schedule: Q01DX011 (ip), vehicle: carboxymethylcellulose (CMC)): 116 % of control | T/C (dose: 3.7 mg/kg/injection, schedule: Q01DX011 (ip), vehicle: carboxymethylcellulose (CMC)): 154 % of control | T/C (dose: 7.5 mg/kg/injection, schedule: Q01DX011 (ip), vehicle: methylcellulose (MC)): 34 % of control and 57 % of control | T/C [2]: 65 % of control and 87 % of control

CNS(=O)(=O)c1ncnc2nc[nH]c12
T/C (dose: 3.1 mg/kg/injection, schedule: Q01DX011 (ip), vehicle: methylcellulose (MC)): 77 % of control | T/C (dose: 6.2 mg/kg/injection, schedule: Q01DX011 (ip), vehicle: methylcellulose (MC)): 36 % of control | T/C (dose: 8.0 mg/kg/injection, schedule: Q01DX011 (ip), vehicle: carboxymethylcellulose (CMC)): 51 % of control | T/C (dose: 10.0 mg/kg/injection, schedule: Q01DX011 (ip), vehicle: carboxymethylcellulose (CMC)): 20 % of control | T/C [7]: 44 % of control | T/C (dose: 15.0 mg/kg/injection, schedule: Q01DX011 (ip), vehicle: carboxymethylcellulose (CMC)): 28 % of control | T/C (dose: 20.0 mg/kg/injection, schedule: Q01DX011 (ip), vehicle: carboxymethylcellulose (CMC)): 2 % of control | T/C [8]: 5 % of control | T/C [1]: 16 % of control | T/C (dose: 40.0 mg/kg/injection, schedule: Q01DX011 (ip), vehicle: carboxymethylcellulose (CMC)): 2 % of control

Cc1cc(Nc2cccc(Cl)c2)nc(N)n1
T/C [2]: 114 % of control | T/C [3]: 56 % of control

Nc1nc(Cl)cc(Nc2ccccc2Cl)n1
T/C [2]: 110 % of control | T/C [3]: 49 % of control | T/C [4]: 89 % of control | T/C [5]: 89 % of control | T/C [6]: 75 % of control

Fc1ccccc1CSc1ncnc2c1ncn2C1CCCO1 (configuration not stated)
T/C (dose: 3.4 mg/kg/injection, schedule: Q01DX011 (ip), vehicle: methylcellulose (MC)): 82 % of control | T/C (dose: 6.75 mg/kg/injection, schedule: Q01DX011 (ip), vehicle: methylcellulose (MC)): 96 % of control | T/C [7]: 26 % of control | T/C [8]: 1 % of control and 15 % of control | T/C (dose: 50.0 mg/kg/injection, schedule: Q01DX011 (ip), vehicle: methylcellulose (MC)): 1 % of control
